pIC50: −log10 of the molar value. Each block holds one molecule with its values, some of them ahead of it.
Key:
SW-620 [1] = test: cells; conditions: Homo sapiens
SW-620 [2] = test: Reversal of resistance to paclitaxel-induced cytotoxicity in human SW-620/AD300 cells assessed as reversal fold at 4 uM preincubated for 4 hrs followed by paclitaxel addition and measured after 72 hrs by MTT assay relative to paclitaxel; type: functional; conditions: time 76 hrs
SW-620 [3] = test: Reversal of resistance to paclitaxel-induced cytotoxicity in human SW-620/AD300 cells assessed as reversal fold at 2 uM preincubated for 4 hrs followed by paclitaxel addition and measured after 72 hrs by MTT assay relative to paclitaxel; type: functional; conditions: time 76 hrs
SW-620 [4] = test: Reversal of resistance to paclitaxel-induced cytotoxicity in human SW-620/AD300 cells assessed as reduction in paclitaxel IC50 at 2 uM preincubated for 4 hrs followed by paclitaxel addition and measured after 72 hrs by MTT assay (reference value: 4.23 +/- 0.50 uM); type: functional, cell-based
SW-620 [5] = test: Reversal of resistance to paclitaxel-induced cytotoxicity in human SW-620/AD300 cells assessed as reversal fold at 5 uM preincubated for 4 hrs followed by paclitaxel addition and measured after 72 hrs by MTT assay relative to paclitaxel; type: functional; conditions: time 76 hrs
SW-620 [6] = test: Reversal of resistance to paclitaxel-induced cytotoxicity in human SW-620/AD300 cells assessed as reduction in paclitaxel IC50 at 5 uM preincubated for 4 hrs followed by paclitaxel addition and measured after 72 hrs by MTT assay (reference value: 4.23 +/- 0.50 uM); type: functional, cell-based
SW-620 [7] = test: Reversal of resistance to paclitaxel-induced cytotoxicity in human SW-620/AD300 cells assessed as reduction in paclitaxel IC50 at 1 uM preincubated for 4 hrs followed by paclitaxel addition and measured after 72 hrs by MTT assay (reference value: 4.23 +/- 0.50 uM); type: functional, cell-based
SW-620 [8] = test: Reversal of resistance to paclitaxel-induced cytotoxicity in human SW-620/AD300 cells assessed as reversal fold at 1 uM preincubated for 4 hrs followed by paclitaxel addition and measured after 72 hrs by MTT assay relative to paclitaxel; type: functional; conditions: time 76 hrs
SW-620 [9] = test: Reversal of resistance to paclitaxel-induced cytotoxicity in human SW-620/AD300 cells assessed as reduction in paclitaxel IC50 at 10 uM preincubated for 4 hrs followed by paclitaxel addition and measured after 72 hrs by MTT assay (reference value: 4.23 +/- 0.50 uM); type: functional, cell-based
SW-620 [10] = test: Reversal of resistance to paclitaxel-induced cytotoxicity in human SW-620/AD300 cells assessed as reversal fold at 10 uM preincubated for 4 hrs followed by paclitaxel addition and measured after 72 hrs by MTT assay relative to paclitaxel; type: functional; conditions: time 76 hrs
SW-620 [11] = test: Reversal of resistance to paclitaxel-induced cytotoxicity in human SW-620/AD300 cells assessed as reversal fold at 6 uM preincubated for 4 hrs followed by paclitaxel addition and measured after 72 hrs by MTT assay relative to paclitaxel; type: functional; conditions: time 76 hrs
SW-620 [12] = test: Reversal of resistance to paclitaxel-induced cytotoxicity in human SW-620/AD300 cells assessed as reduction in paclitaxel IC50 at 6 uM preincubated for 4 hrs followed by paclitaxel addition and measured after 72 hrs by MTT assay (reference value: 4.23 +/- 0.50 uM); type: functional, cell-based

- pIC50 (SW-620 [1]): 6.16
Compound: Cc1cc(Nc2ccc(C(=O)/C=C/c3ccc4ccccc4c3)cc2)n2nc(SCc3c(Cl)cccc3Cl)nc2n1
- fold change (FC) (SW-620 [2]): 6.13

Compound: Cc1cc(Nc2ccc(C(=O)/C=C/c3ccccc3F)cc2)n2nc(SCc3nc4ccccc4[nH]3)nc2n1
- fold change (FC) (SW-620 [3]): 16.92
- pIC50 (SW-620 [4]): 6.60

Compound: Cc1cc(Nc2ccc(C(=O)/C=C/c3ccc4ccccc4c3)cc2)n2nc(SCc3ccc(Br)cc3)nc2n1
- fold change (FC) (SW-620 [5]): 11.43
- pIC50 (SW-620 [6]): 6.43

Compound: COc1ccc(/C=C/C(=O)c2ccc(Nc3cc(C)nc4nc(SCc5nc6ccccc6[nH]5)nn34)cc2)cc1F
- fold change (FC) (SW-620 [3]): 30.21
- pIC50 (SW-620 [4]): 6.85

Compound: Cc1ccc(CSc2nc3nc(C)cc(Nc4ccc(C(=O)/C=C/c5ccc6ccccc6c5)cc4)n3n2)cc1
- fold change (FC) (SW-620 [5]): 4.81
- pIC50 (SW-620 [6]): 6.06

Compound: Cc1cc(Nc2ccc(C(=O)/C=C/c3ccc4ccccc4c3)cc2)n2nc(SCc3ccccc3)nc2n1
- fold change (FC) (SW-620 [5]): 14.1
- pIC50 (SW-620 [6]): 6.52

Compound: Cc1cc(Nc2ccc(C(=O)/C=C/c3ccc4c(c3)OC(F)(F)O4)cc2)n2nc(SCc3nc4ccccc4[nH]3)nc2n1
- pIC50 (SW-620 [7]): 6.62
- fold change (FC) (SW-620 [8]): 17.63

Compound: COc1ccc(CSc2nc3nc(C)cc(Nc4ccc(C(=O)/C=C/c5ccc6ccccc6c5)cc4)n3n2)cc1
- fold change (FC) (SW-620 [5]): 16.92
- pIC50 (SW-620 [6]): 6.60

Compound: CCCSc1nc2nc(C)cc(Nc3ccc(C(=O)/C=C/c4ccc5ccccc5c4)cc3)n2n1
- pIC50 (SW-620 [9]): 5.97
- fold change (FC) (SW-620 [10]): 3.95

- pIC50 (SW-620 [1]): 6.06
Compound: C#CCSc1nc2nc(C)cc(Nc3ccc(C(=O)/C=C/c4ccc5ccccc5c4)cc3)n2n1
- fold change (FC) (SW-620 [2]): 4.86

Compound: Cc1cc(Nc2ccc(C(=O)/C=C/c3ccc4ccccc4c3)cc2)n2nc(SCCc3ccccc3)nc2n1
- fold change (FC) (SW-620 [11]): 6.31
- pIC50 (SW-620 [12]): 6.17

Compound: COc1cc(/C=C/C(=O)c2ccc(Nc3cc(C)nc4nc(SCc5nc6ccccc6[nH]5)nn34)cc2)cc(OC)c1OC
- pIC50 (SW-620 [7]): 7.12
- fold change (FC) (SW-620 [8]): 56.4

Compound: Cc1cc(Nc2ccc(C(=O)/C=C/c3ccc(OC(F)(F)F)c(OC(F)(F)F)c3)cc2)n2nc(SCc3nc4ccccc4[nH]3)nc2n1
- pIC50 (SW-620 [7]): 6.92
- fold change (FC) (SW-620 [8]): 35.25

Compound: Cc1cc(Nc2ccc(C(=O)/C=C/c3ccc(Br)cc3)cc2)n2nc(SCc3nc4ccccc4[nH]3)nc2n1
- fold change (FC) (SW-620 [3]): 14.59
- pIC50 (SW-620 [4]): 6.54

Compound: COc1cc(OC)c(/C=C/C(=O)c2ccc(Nc3cc(C)nc4nc(SCc5nc6ccccc6[nH]5)nn34)cc2)c(OC)c1
- pIC50 (SW-620 [7]): 6.59
- fold change (FC) (SW-620 [8]): 16.27

Compound: Cc1cc(Nc2ccc(C(=O)/C=C/c3ccc(C(F)(F)F)cc3)cc2)n2nc(SCc3nc4ccccc4[nH]3)nc2n1
- fold change (FC) (SW-620 [3]): 2.29
- pIC50 (SW-620 [4]): 5.73

Compound: O[C@@H](COc1cccc2ncccc12)CN1CCN([C@@H]2c3ccccc3[C@@H]3[C@H](c4ccccc42)C3(F)F)CC1 [ZOSUQUIDAR]
- fold change (FC) (SW-620 [3]): 71.1
- pIC50 (SW-620 [4]): 7.23

Compound: Cc1cc(Nc2ccc(C(=O)/C=C/c3ccc(-n4cccn4)cc3)cc2)n2nc(SCc3nc4ccccc4[nH]3)nc2n1
- fold change (FC) (SW-620 [3]): 12.44
- pIC50 (SW-620 [4]): 6.47

Compound: Cc1cc(Nc2ccc(C(=O)/C=C/c3ccc4ccccc4c3)cc2)n2nc(SCC(=O)c3ccccc3)nc2n1
- fold change (FC) (SW-620 [3]): 22.26
- pIC50 (SW-620 [4]): 6.72

Compound: Cc1cc(Nc2ccc(C(=O)/C=C/c3ccccc3Cl)cc2)n2nc(SCc3nc4ccccc4[nH]3)nc2n1
- fold change (FC) (SW-620 [3]): 6.22
- pIC50 (SW-620 [4]): 6.17

Compound: COc1ccc(/C=C/C(=O)c2ccc(Nc3cc(C)nc4nc(SCc5nc6ccccc6[nH]5)nn34)cc2)cc1
- fold change (FC) (SW-620 [3]): 24.88
- pIC50 (SW-620 [4]): 6.77

Compound: Cc1cc(Nc2ccc(C(=O)/C=C/c3cccs3)cc2)n2nc(SCc3nc4ccccc4[nH]3)nc2n1
- fold change (FC) (SW-620 [3]): 5.15
- pIC50 (SW-620 [4]): 6.09

Compound: Cc1cc(Nc2ccc(C(=O)/C=C/c3ccccc3)cc2)n2nc(SCc3nc4ccccc4[nH]3)nc2n1
- fold change (FC) (SW-620 [3]): 32.54
- pIC50 (SW-620 [4]): 6.89

Compound: C=CCSc1nc2nc(C)cc(Nc3ccc(C(=O)/C=C/c4ccc5ccccc5c4)cc3)n2n1
- pIC50 (SW-620 [9]): 6.04
- fold change (FC) (SW-620 [10]): 4.6
